Measured values taken from article PMC10294875, “Ether Derivatives of Naringenin and Their Oximes as Factors Modulating Bacterial Adhesion” (Antibiotics, 2023).
Converted amounts (≈) assume the structure as drawn.

Assays:
HT-29 cell line = assay: SRB assay, antiproliferative activity against HT-29; format: cell-based, human; settings: for IC50: Homo sapiens; for cytotoxic / antiproliferative effect against HT-29 (in words): SRB, tested concentration range 1–100 µg/mL
Procedure: (§1) The human adenocarcinoma cell line, HT-29 (ATCC HTB-38), was cultured in αMEM medium (IITD PAN) supplemented with 10% fetal bovine serum, FBS (Sigma-Aldrich, Taufkirchen, Germany), 100 U/mL penicillin, 100 µg/mL streptomycin antibiotic solution (Sigma-Aldrich, Taufkirchen, Germany), and 2 mM glutamine solution (Sigma-Aldrich, Taufkirchen, Germany). Cells from less than 20 passages were used for the study. In turn, preadipocytes from mouse embryos with the morphology of fibroblast cells, line 3T3-L1 (ATCC CL-173), were cultured in DMEM high-glucose medium (Life Technologies Corporation, Carlsbad, CA, USA) with the same supplements as above. Cells from less than 14 passages were used for the study. Both tested cell lines were grown at 37 °C in 5% CO2.
(§2) The effect of O-alkyl derivatives of naringenin and their oximes on eukaryotic cells was checked using a slightly modified SRB test described earlier. Firstly, HT-29 (1 × 10^5 cells/mL) and 3T3-L1 (5 × 10^4 cells/mL) cell lines were incubated in adherent microtiter plates under the conditions described above. The cells were then treated for 2 h with the tested compounds 1a–10a and 1b–10b at concentrations of 1, 5, 10, 25, 50, 75, and 100 µg/mL each. After this time, the medium was removed and replaced with one containing 50% (wt/vol) trichloroacetic acid (TCA; Sigma-Aldrich, Taufkirchen, Germany). Following 1 h of incubation at 4 °C, the plate was rinsed with water, and then an acidic solution of 0.4% sulforhodamine B (SRB) (Sigma-Aldrich, Taufkirchen, Germany), was added to the dried wells and incubated in the dark for half an hour. At the end of this time, the SRB solution was replaced by 1% (vol/vol) acetic acid, and the stained protein precipitate was dissolved in 10 mM Tris base solution (pH 10.5). Absorbance was measured at 560 nm in a plate reader (GloMax Discover Microplate Reader, Promega).
(§3) The cytotoxic effect of O-alkyl derivatives of naringenin and their oximes on eukaryotic cells was expressed as the concentration of the tested compounds at which 50% growth inhibition of the tested cell lines was observed. Values were presented in the form of the survival index (SI)–IC50. All determinations were repeated in three independent experiments, each performed in three technical replicates. Moreover, the effect of DMSO (Sigma-Aldrich, Taufkirchen, Germany), the solvent present in all the initial solutions of the tested compounds, on the growth of the cell lines used in the study was also verified.

3T3-L1 cell line = assay: SRB assay, antiproliferative activity against 3T3-L1; format: cell-based, mouse; settings: for IC50: Mus musculus; for cytotoxic / antiproliferative effect against 3T3-L1 (in words): SRB, tested concentration range 1–100 µg/mL
Procedure: as §1, §2, §3

[1] = tested on: Escherichia coli K12 (ATCC 10798); assay: Adhesion assay, static conditions: E. coli to 3T3-L1 cell line; format: cell-based
Procedure: (§4) The study used two reference strains, Escherichia coli K12 (ATCC 10798) and Enterococcus faecalis (ATCC 29212), obtained from the American Type Culture Collection. Both strains were stored in trypticase soy broth (TSB; OXOID, Basingstoke, UK) with the addition of 30% glycerol at −70 °C in the museum resources of the Department of Microbiology at the Wroclaw Medical University.
(§5) For studies determining the interaction of bacteria with eukaryotic cells, suspensions of the tested strains were prepared in Luria broth (LB, Becton, Dickinson and Company, USA) medium with a bacterial density of 6 × 10^8 CFU/mL.
(§6) The adhesion ability of the tested bacterial strains to HT-29 and 3T3-L1 cell lines was determined by an in vitro adhesion assay as described previously. Eukaryotic cells were infected with prokaryotic cells in the presence of the examined compounds in pre-selected concentrations at an MOI (multiplicity of infection) ratio of 50. Cells were exposed to the tested strains and compounds for 2 h. After this time, unbound bacteria were removed by washing with PBS (Life Technologies Corporation, Carlsbad, CA, USA). The lysates acquired by cell lysis (0.5% Triton X-100 in LB): 90 min, 37 °C, 5% CO2 atmosphere, were then seeded onto TSA and MC media for E. faecalis and E. coli, respectively. The assays were performed in at least three independent experiments (cells from subsequent passages), each in triplicate. A control without tested compounds was set for each strain.

[2] = tested on: Escherichia coli K12 (ATCC 10798); assay: Adhesion assay, static conditions: E. coli to HT-29 cell line; format: cell-based
Procedure: as §4, §5, §6

[3] = tested on: Enterococcus faecalis (ATCC 29212); assay: Adhesion assay, static conditions: E. faecalis to 3T3-L1 cell line; format: cell-based
Procedure: as §4, §5, §6

[4] = 2 h incubation, SRB assay, HT-29
[5] = 2 h incubation, SRB assay, 3T3-L1

Row | SMILES | IC50 (HT-29 cell line; [4]) [µg/mL] | cytotoxic / antiproliferative effect against HT-29 (in words) (HT-29 cell line) | IC50 (3T3-L1 cell line; [5]) [µg/mL] | cytotoxic / antiproliferative effect against 3T3-L1 (in words) (3T3-L1 cell line) | other results
1 | CCCCCCOc1cc(O)c2c(c1)O[C@H](c1ccc(O)cc1)CC2=O [Compound 1a, 7-O-hexylnaringenin] | 25.4 (≈ 71.2 µM) | antiproliferative activity | 25.8 (≈ 72.4 µM) | cytotoxic activity | IC50 lower than compound 7a (ratio) (HT-29 cell line; HT-29, 1a vs 7a): 1.8 times
2 | CCCCCCOc1cc(O)c2c(c1)O[C@H](c1ccc(O)cc1)CC2=NO [Compound 1b, 7-O-hexylnaringenin oxime] | 38.4 (≈ 103 µM) | cytotoxic effects | 35 (≈ 94.2 µM) |  | attachment of E. coli to 3T3-L1 decreased to ([1]; 1 µg/mL): 63%; adherence of E. coli to 3T3-L1 ([1]; 25 µg/mL): practically not observed
3 | CCCCCCOc1ccc([C@@H]2CC(=O)c3c(O)cc(OCCCCCC)cc3O2)cc1 [Compound 2a, 7,4’-di-O-hexylnaringenin] | > 100 | no effect | > 100 | no effect | 
4 | CCCCCCOc1ccc([C@@H]2CC(=NO)c3c(O)cc(OCCCCCC)cc3O2)cc1 [Compound 2b, 7,4’-di-O-hexylnaringenin oxime] | > 100 |  | > 100 |  | 
5 | CCCCCCCOc1cc(O)c2c(c1)O[C@H](c1ccc(O)cc1)CC2=O [Compound 3a, 7-O-heptylnaringenin] | 28.7 (≈ 77.5 µM) | antiproliferative activity | 25.6 (≈ 69 µM) | cytotoxic activity | 
6 | CCCCCCCOc1cc(O)c2c(c1)O[C@H](c1ccc(O)cc1)CC2=NO [Compound 3b, 7-O-heptylnaringenin oxime] | 29.1 (≈ 75.6 µM) | cytotoxic effects | 32.1 (≈ 83.3 µM) |  | 
7 | CCCCCCCOc1ccc([C@@H]2CC(=O)c3c(O)cc(OCCCCCCC)cc3O2)cc1 [Compound 4a, 7,4’-di-O-heptylnaringenin] | > 100 | no effect | > 100 | no effect | 
8 | CCCCCCCOc1ccc([C@@H]2CC(=NO)c3c(O)cc(OCCCCCCC)cc3O2)cc1 [Compound 4b, 7,4’-di-O-heptylnaringenin oxime] | 43.4 (≈ 89.6 µM) |  | > 100 |  | adhesion of E. coli to HT-29 higher than in the control ([2]; 25 µg/mL): 17 fold; adhesion of E. coli to HT-29 higher than in the control ([2]; 50 µg/mL): 5 fold; level of adherence of E. coli to HT-29 ([2]; 1–10 µg/mL or 75–100 µg/mL): very low
9 | CCCCCCCCOc1cc(O)c2c(c1)O[C@H](c1ccc(O)cc1)CC2=O [Compound 5a, 7-O-octylnaringenin] | 38.4 (≈ 99.7 µM) | antiproliferative activity | 20.1 (≈ 52.3 µM) | cytotoxic activity | 
10 | CCCCCCCCOc1cc(O)c2c(c1)O[C@H](c1ccc(O)cc1)CC2=NO [Compound 5b, 7-O-octylnaringenin oxime] | 49.8 (≈ 125 µM) | cytotoxic effects | 49.9 (≈ 125 µM) |  | 
11 | CCCCCCCCOc1ccc([C@@H]2CC(=O)c3c(O)cc(OCCCCCCCC)cc3O2)cc1 [Compound 6a, 7,4’-di-O-octylnaringenin] | > 100 | no effect | > 100 | no effect | 
12 | CCCCCCCCOc1ccc([C@@H]2CC(=NO)c3c(O)cc(OCCCCCCCC)cc3O2)cc1 [Compound 6b, 7,4’-di-O-octylnaringenin oxime] | > 100 |  | > 100 |  | 
13 | CCCCCCCCCOc1cc(O)c2c(c1)O[C@H](c1ccc(O)cc1)CC2=O [Compound 7a, 7-O-nonylnaringenin] | 46.7 (≈ 117 µM) | antiproliferative activity | 22.2 (≈ 55.8 µM) | cytotoxic activity | effect on adhesion of E. faecalis to 3T3-L1 (in words) [3]: often actually limited the attachment
14 | CCCCCCCCCOc1cc(O)c2c(c1)O[C@H](c1ccc(O)cc1)CC2=NO [Compound 7b, 7-O-nonylnaringenin oxime] | 57.8 (≈ 140 µM) | cytotoxic effects | 41.6 (≈ 101 µM) |  | effect on adhesion of E. faecalis to 3T3-L1 (in words) [3]: often actually limited the attachment
15 | CCCCCCCCCOc1ccc([C@@H]2CC(=O)c3c(O)cc(OCCCCCCCCC)cc3O2)cc1 [Compound 8a, 7,4’-di-O-nonylnaringenin] | > 100 | no effect | > 100 | no effect | 
16 | CCCCCCCCCCCOc1cc(O)c2c(c1)O[C@H](c1ccc(O)cc1)CC2=O [Compound 9a, 7-O-undecylnaringenin] | > 100 |  | 80.6 (≈ 189 µM) | cytotoxic activity | effect on adhesion of E. faecalis to 3T3-L1 (in words) [3]: often actually limited the attachment
17 | CCCCCCCCCCCOc1cc(O)c2c(c1)O[C@H](c1ccc(O)cc1)CC2=NO [Compound 9b, 7-O-undecylnaringenin oxime] | > 100 |  | > 100 |  | effect on adhesion of E. faecalis to 3T3-L1 (in words) [3]: often actually limited the attachment
18 | CCCCCCCCCCCOc1ccc([C@@H]2CC(=O)c3c(O)cc(OCCCCCCCCCCC)cc3O2)cc1 [Compound 10a, 7,4’-di-O-undecylnaringenin] | > 100 | no effect | > 100 | no effect | bacterial adhesion disturbed (decrease), E. coli to 3T3-L1 ([1]; regardless of the concentration used): ≈ 2 fold
19 | CCCCCCCCCCCOc1ccc([C@@H]2CC(=NO)c3c(O)cc(OCCCCCCCCCCC)cc3O2)cc1 [Compound 10b, 7,4’-di-O-undecylnaringenin oxime] | 48.2 (≈ 80.9 µM) |  | > 100 |  | 
20 | ON=C1C[C@@H](c2ccc(O)cc2)Oc2cc(O)cc(O)c21 [NGOX, naringenin oxime, reference compound] |  |  |  |  | IC50 HT-29 (HT-29 cell line; [4]): >100 µg/mL; IC50 3T3-L1 (3T3-L1 cell line; [5]): >100 µg/mL
